Each structure is given as a SMILES string.

The first assay concerns KMS.12.BM cells. The assay can be described thus: KMS.12.BM Cell Viability Assay (Example B1). It counts as cell-based, human. Particulars: 3 days, Cell Titer-GLO, read-out: KMS cellular IC50. The procedure, abridged:
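KMS.12.BM human myeloma cells, 5000 cells/well in RPMI with 10% FBS, exposed to a compound concentration range for 3 days. Viable cells measured by ATP-based Cell Titer-GLO luminescence after 10 min at room temperature.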
Turning to `Cc1noc(C)c1-c1ccc2[nH]c(=O)n3c2c1OC(CO)C3c1ccccn1` (single isomer, unassigned) [Example 62C, 7-(3,5-Dimethylisoxazol-4-yl)-5-(hydroxymethyl)-4-pyridin-2-yl-4,5-dihydroimidazo[1,5,4-de][1,4]benzoxazin-2(1H)-one], the half-maximal inhibitory concentration (IC50) (commonly the point on the concentration scale where inhibition reaches its midpoint) was under 1 µM.

Consider `Cc1noc(C)c1-c1cc(C(C)O)c2[nH]c(=O)n3c2c1OC[C@@H]3c1ccccn1` (single isomer, unassigned) [Example 144B], for which the 50% inhibitory concentration (IC50) is under 1 µM.

Still in this assay, the particulars now being: Homo sapiens, 72 h, 3 days, Cell Titer-GLO, read-out: KMS cellular IC50.
For `Cc1n[nH]cc1-c1ccc2[nH]c(=O)n3c2c1OCC3c1ccccc1` (stereo not shown) [Example 12, 7-(3-Methyl-1H-pyrazol-4-yl)-4-phenyl-4,5-dihydroimidazo[1,5,4-de][1,4]benzoxazin-2(1H)-one], the half-inhibitory concentration (IC50) is 1 to 10 µM. The same measure, in the same setting: then `Cc1noc(C)c1-c1ccc2nc(N3CC[C@@H](C(=O)NC(C)C)C3)n3c2c1OC[C@@H]3c1ccccn1` [Example 145, (3R)-1-[(4S)-7-(3,5-Dimethylisoxazol-4-yl)-4-pyridin-2-yl-4,5-dihydroimidazo[1,5,4-de][1,4]benzoxazin-2-yl]-N-isopropylpyrrolidine-3-carboxamide], with under 1 µM. The same measure, in the same setting: then `Cc1noc(C)c1-c1ccc2nc(N3CCN(CC(N)=O)CC3)n3c2c1OC[C@@H]3c1ccccn1` [Example 191, 2-{4-[(4S)-7-(3,5-dimethylisoxazol-4-yl)-4-pyridin-2-yl-4,5-dihydroimidazo[1,5,4-de][1,4]benzoxazin-2-yl]piperazin-1-yl}acetamide], with under 1 µM; and `Cc1noc(C)c1-c1ccc2nc(N3CCC(NS(C)(=O)=O)CC3)n3c2c1OC[C@@H]3c1ccccn1` [Example 240, N-{1-[(4S)-7-(3,5-dimethylisoxazol-4-yl)-4-pyridin-2-yl-4,5-dihydroimidazo[1,5,4-de][1,4]benzoxazin-2-yl]piperidin-4-yl}methanesulfonamide], with under 1 µM; and `COC(=O)N[C@@H]1CCN(c2nc3ccc(-c4c(C)noc4C)c4c3n2[C@@H](c2ccccn2)CO4)C1` [Example 155, Methyl {(3R)-1-[(4S)-7-(3,5-dimethylisoxazol-4-yl)-4-pyridin-2-yl-4,5-dihydroimidazo[1,5,4-de][1,4]benzoxazin-2-yl]pyrrolidin-3-yl}carbamate], with under 1 µM. Same read-out and setting: then `Cc1noc(C)c1-c1ccc2nc(N3CCC(O)CC3)n3c2c1OC[C@@H]3c1ccccn1` [Example 169, 1-[(4S)-7-(3,5-dimethylisoxazol-4-yl)-4-pyridin-2-yl-4,5-dihydroimidazo[1,5,4-de][1,4]benzoxazin-2-yl]piperidin-4-ol], with under 1 µM; and `Cc1noc(C)c1-c1ccc2[nH]c(=O)n3c2c1CCC3c1ccccc1` (stereo not shown) [Example 120, 7-(3,5-Dimethylisoxazol-4-yl)-4-phenyl-5,6-dihydro-4H-imidazo[4,5,1-ij]quinolin-2(1H)-one], with under 1 µM. Consider `CNC(=O)C1CCN(c2nc3ccc(-c4c(C)noc4C)c4c3n2[C@@H](c2ccccn2)CO4)CC1` [Example 189, 1-[(4S)-7-(3,5-dimethylisoxazol-4-yl)-4-pyridin-2-yl-4,5-dihydroimidazo[1,5,4-de][1,4]benzoxazin-2-yl]-N-methylpiperidine-4-carboxamide], for which the IC50 was under 1 µM.

Consider `Cc1noc(C)c1-c1ccc2nc(C)n3c2c1OC[C@@H]3c1ccccn1` [Example 154, 7-(3,5-Dimethylisoxazol-4-yl)-2-methyl-4-pyridin-2-yl-4,5-dihydroimidazo[1,5,4-de][1,4]benzoxazine], for which the IC50 is under 1 µM. Still for that read-out and setting: then `Cc1noc(C)c1-c1cc(Br)c2[nH]c(=O)n3c2c1OCC3c1ccccn1` (single isomer, unassigned) [Example 267B, 9-bromo-7-(3,5-dimethylisoxazol-4-yl)-4-pyridin-2-yl-4,5-dihydroimidazo[1,5,4-de][1,4]benzoxazin-2(1H)-one], with under 1 µM; and `Cc1noc(C)c1-c1ccc2nc(N3CC[C@@H](NC(=O)C4CCOCC4)C3)n3c2c1OC[C@@H]3c1ccccn1` [Example 213, N-{(3R)-1-[(4S)-7-(3,5-dimethylisoxazol-4-yl)-4-pyridin-2-yl-4,5-dihydroimidazo[1,5,4-de][1,4]benzoxazin-2-yl]pyrrolidin-3-yl}tetrahydro-2H-pyran-4-carboxamide], with under 1 µM. For `Cc1noc(C)c1-c1ccc2[nH]c(=O)n3c2c1OC(C(=O)NCCO)C3c1ccccc1` (single isomer, unassigned) [Example 48B, 7-(3,5-Dimethylisoxazol-4-yl)-N-(2-hydroxyethyl)-2-oxo-4-phenyl-1,2,4,5-tetrahydroimidazo[1,5,4-de][1,4]benzoxazine-5-carboxamide], the 50% inhibitory concentration (IC50) lay within 1 to 10 µM.

In the case of `Cc1noc(C)c1-c1ccc2[nH]c(=O)n3c2c1OCC3c1cccc[n+]1[O-]` (stereo not shown) [Example 16, 7-(3,5-Dimethylisoxazol-4-yl)-4-(1-oxidopyridin-2-yl)-4,5-dihydroimidazo[1,5,4-de][1,4]benzoxazin-2(1H)-one], the IC50 was under 1 µM. Regarding `CN[C@@H]1CCN(c2nc3ccc(-c4c(C)noc4C)c4c3n2[C@@H](c2ccccn2)CO4)C1` [Example 181A, (3R)-1-[(4S)-7-(3,5-dimethylisoxazol-4-yl)-4-pyridin-2-yl-4,5-dihydroimidazo[1,5,4-de][1,4]benzoxazin-2-yl]-N-methylpyrrolidin-3-amine], the IC50 is under 1 µM. Regarding `Cc1noc(C)c1-c1ccc2nc(N3CCN(CCO)CC3)n3c2c1OC[C@@H]3c1ccccn1` [Example 177, 2-{4-[(4S)-7-(3,5-dimethylisoxazol-4-yl)-4-pyridin-2-yl-4,5-dihydroimidazo[1,5,4-de][1,4]benzoxazin-2-yl]piperazin-1-yl}ethanol], the IC50 was under 1 µM. For `Cc1noc(C)c1-c1ccc2nc(N3CCC(CO)CC3)n3c2c1OC[C@@H]3c1ccccn1` [Example 176, {1-[(4S)-7-(3,5-dimethylisoxazol-4-yl)-4-pyridin-2-yl-4,5-dihydroimidazo[1,5,4-de][1,4]benzoxazin-2-yl]piperidin-4-yl}methanol], the IC50 was under 1 µM. Same read-out and setting: the result for `CCS(=O)(=O)N1CCN(c2nc3ccc(-c4c(C)noc4C)c4c3n2[C@@H](c2ccccn2)CO4)CC1` [Example 226, (4S)-7-(3,5-dimethylisoxazol-4-yl)-2-[4-(ethylsulfonyl)piperazin-1-yl]-4-pyridin-2-yl-4,5-dihydroimidazo[1,5,4-de][1,4]benzoxazine] reads under 1 µM.

Still in this assay, the particulars now being: Homo sapiens, KMS-12-BM, 72 h, 3 days, Cell Titer-GLO, read-out: KMS cellular IC50.
As for `Cc1noc(C)c1-c1ccc2nc(N3CCC(C)(O)C3)n3c2c1OC[C@@H]3c1ccccn1` (single isomer, unassigned) [Example 146A], the concentration for half-maximal inhibition (IC50) was under 1 µM.

Consider `CCOC(=O)C1Oc2c(-c3c(C)noc3C)ccc3[nH]c(=O)n(c23)C1c1ccccn1` (stereo not shown) [Example 20, Ethyl 7-(3,5-dimethylisoxazol-4-yl)-2-oxo-4-pyridin-2-yl-1,2,4,5-tetrahydroimidazo[1,5,4-de][1,4]benzoxazine-5-carboxylate], for which the IC50 is under 1 µM. Take `Cc1noc(C)c1-c1ccc2[nH]c(=O)n3c2c1OCC3c1cccnc1C(=O)N(C)C` (stereo not shown) [Example 129, 3-[7-(3,5-Dimethylisoxazol-4-yl)-2-oxo-1,2,4,5-tetrahydroimidazo[1,5,4-de][1,4]benzoxazin-4-yl]-N,N-dimethylpyridine-2-carboxamide]: the IC50 was under 1 µM.
